The results in this text go back to patent US8778389B2, “Medicament for the treatment of fungal infections particularly aspergillosis” (Sigma-Tau Industrie Farmaceutiche Riunite S.p.A., priority 2004, dated 2014).

Series [1] concerns A. fumigatus. It counts as in vivo, mice. As for the experimental part: Lethally irradiated C3H/HeJ mice were infused with T-cell-depleted BM cells of BALB/c mice (2×10^6) one week before intra-nasal infection with 2×10^7 Aspergillus conidia. The mice were treated with PTX3 or with the polyenes, at the doses and via the routes indicated, 5 days before (Pre-) or after (Post-) or concomitantly with infection (Con.), in each case repeating the administration for the next 5 days. Resistance to the infection was assessed as percentage survival. The fungal load in the lungs, brains and kidneys of the infected mice was quantified by serial plating on the Sabouraud dextrose medium of the lavages of the various organs and the results were expressed as colony forming units (CFU) (mean±SE) in samples taken from the organs indicated and performed at the time of death for the mice that died […] or otherwise at 6 days after infection. The groups consisted of 6 animals.
BM-transplanted mice, generated as described in detail in the legend to FIG. 1, were infected intranasally with 2×10^7 Aspergillus conidia and treated intraperitoneally with each single agent alone or in combination, before (Pre-) or after (Post-) infection. The doses were: 0.04 and 0.2 mg/kg PTX3 before or after infection, respectively; 1 mg/kg AmBisome and 2 mg/kg Fungizone.
Bone marrow (BM) cells from BALB/c donor mice were prepared by differential agglutination with soy agglutinin.
The A. fumigatus strain was supplied by a fatal case of pulmonary aspergillosis at the Institute for Infectious Diseases of the University of Perugia (13). For infection, the mice were lightly anaesthetised by means of the inhalation of ethyl ether prior to the instillation of a suspension of 2×10^7 conidia/20 μL saline solution, which was delivered slowly through the nostrils using a micropipette with a sterile disposable tip. This procedure was repeated for 3 consecutive days. For reinfection, the mice surviving the primary intranasal (i.n.) infection were inoculated with 5×10^5 of Aspergillus conidia i.v. The fungal load in the lungs, brain and kidneys of the infected mice was quantified by serial plating on Sabouraud dextrose medium and the results (mean±SE) were expressed as colony forming units (CFU) in samples taken from the organs indicated. For selected experiments, the fungal growth was also evaluated by chitin analysis (10). For the histological analysis, the lung was removed and immediately fixed in formalin. Sections (3 to 4 μm) of tissues embedded in paraffin were stained with the periodic acid Schiff base procedure (13, 20).
PTX3 (SIGMA-Tau, Pomezia, Rome, Italy) was purified by immunoaffinity chromatography from the culture supernatants of CHO cells CHO transfected with PTX3 and monitored for the absence of endotoxins (20). PTX3, amphotericin B deoxycholate (D-AmB, Fungizone, Bristol-Myers Squibb, Sermoneta, Italy) and liposomal amphotericin B (L-AmB, AmBisome, GILEAD, Milan, Italy) were diluted to the desired concentrations in sterile saline solution (PTX3) or in a 5% glucose-water solution.

For series [2], the system named is Aspergillus conidia. The series is described as follows: Resistance to Aspergillus reinfection (i.v.) in cured BM-transplanted mice. In kind it is in vivo. Conditions: PTX3 concomitantly with primary infection; i.v. reinfection two weeks later; CFU 3 days after reinfection. The text has this: FIG. 2 illustrates the effect of the administration of PTX3 on resistance to Aspergillus reinfection. BM-transplanted mice, generated as described in detail in the legend to FIG. 1, were infected intranasally with 2×10^7 Aspergillus conidia one week after the BM transplant and treated concomitantly with PTX3 at the doses and via the administration routes indicated, starting on the day of infection and continuing for the next 5 days. Two weeks after the infection the surviving mice were reinfected intravenously with 5×10^5 Aspergillus conidia. The fungal growth (CFU) in the kidneys was evaluated 3 days after reinfection. * Indicates P<0.05 (treated vs. untreated mice).
(§1) The A. fumigatus strain was supplied by a fatal case of pulmonary aspergillosis at the Institute for Infectious Diseases of the University of Perugia (13). […] For reinfection, the mice surviving the primary intranasal (i.n.) infection were inoculated with 5×10^5 of Aspergillus conidia i.v. The fungal load in the lungs, brain and kidneys of the infected mice was quantified by serial plating on Sabouraud dextrose medium and the results (mean±SE) were expressed as colony forming units (CFU) in samples taken from the organs indicated. For selected experiments, the fungal growth was also evaluated by chitin analysis (10). […]

The subject of series [3] is A. fumigatus. The series is described as follows: Lung histology (periodic acid Schiff) in mice with invasive aspergillosis. Particulars: 1 mg/kg i.p. from day of infection and for another 5 days; 6 days after infection. It counts as in vivo. As for the experimental part:
Periodic Schiff base sections were prepared from the lungs of the BM-transplanted mice infected with Aspergillus conidia either untreated (A) or treated (B) with 1 mg/kg PTX3 intraperitoneally from the day of infection and continuing for another 5 days. Numerous Aspergillus hyphae (arrows) infiltrate the pulmonary parenchyma, with extensive parenchymal destruction and strong signs of damage to the bronchial wall, and necrosis and poor cell recruitment are observed in the lungs of the untreated mice ([…]). […] Enlargement, ×100 in panels A and B; ×400 in insets.
as §1

Series [4] concerns CD4+, CD8+, Gr-1+, F4-80+ cells. The series is described as follows: Cell recovery by FACS analysis of lung and spleen cells and blood leukocyte count in mice with invasive aspergillosis. In kind it is in vivo. As for the experimental part: BM-transplanted mice, generated as described in detail in the legend to FIG. 1, were infected intranasally with 2×10^7 Aspergillus conidia and treated (+) or untreated (−) with 1 mg/kg PTX3 intraperitoneally from the day of infection and continuing for another 5 days. The numbers refer to the percentage of positive cells, reported by the FACS analysis in the lungs (A) and in the spleen (B), 3 or 6 days after infection.
The phenotype of the various cell types was assessed using murine antibodies against the antigens indicated with rat anti-mouse antibodies conjugated with FITC from PharMingen (San Diego, Calif.). Prior to immunochemical identification, the FcR was saturated by incubation of the cells with 5% normal serum. Histotype antibodies were used as controls. The analysis was done by means of FACScan (Becton Dickinson, Mountain View, Calif.). The data obtained were evaluated as percentage of positive cells. The histograms are representative of one of four independent experiments.
For orientation: A flow cytometer gives signals particle by particle.

In series [5] the test system is IL-12 p70, IL-10, TNF-α, IFN-γ, IL-4. As to the kind of experiment: Cytokine levels (ELISA) and cytokine-producing CD4+ T spleen cells (ELISPOT) in mice with invasive aspergillosis. In kind it is in vivo. As to the method:
(§2) BM-transplanted mice, generated as described in detail in the legend to FIG. 1, were infected intranasally with 2×10^7 Aspergillus conidia and treated with 1 mg/kg PTX3 intraperitoneally both before infection (oblique line bars) and from the day of infection and continuing for another 3 days (dotted bars). At 3 days after infection, IL-12 p70 and IL-10 levels were determined by specific ELISA analyses in bronchoalveolar lavage fluids (A), the number of CD4^+ T spleen cells producing cytokines were numbered by ELISPOT analysis (B) and the gene expression of cytokine on CD4^+ spleen cells was determined by real-time PCR. Bars indicate standard errors. *P<0.05, infected vs. non-infected mice; **P<0.05, PTX3-treated vs untreated mice. Non-infected mice (white bars); infected mice (black bars).
BM-transplanted mice, generated as described in detail in the legend to FIG. 1, were infected intranasally with 2×10^7 Aspergillus conidia and treated intraperitoneally with each individual agent alone or in combination after infection. The dosages were as described in detail in the legend to FIG. 6. […] levels (pg/ml) were determined in bronchoaleveolar lavage fluids 3 days after infection (A) and IFN-γ and IL-4 levels (pg/ml) in the culture supernatants of the antigen-activated spleen cells (B) performed at the time of death for those mice that died before, or otherwise at 6 days after infection. Bars indicate standard errors. (−, untreated mice). *P<0.05 treated vs. untreated mice; **P<0.05, combination treatment with PTX3+Fungizone (D-AmB) vs D-AmB alone; ***P<0.05, combination treatment with PTX3+AmBisome (L-AmB) vs each single treatment alone.
The levels of cytokines in the bronchoalveolar lavage fluids and in the supernatants of the cultures of spleen cells stimulated with Aspergillus (9, 10), thermally […], were determined using the ELISA Kit (R&D Systems, Inc. Space Import-Export srl, Milan Italy). The detection limits of the analyses (pg/ml) were <16 for IL-12 p70, <32 for TNF-α, <10 for IFN-γ and <3 for IL-4 and IL-10. For the numbering of the CD4^+ T cells producing cytokines, ELISPOT analysis was used on purified CD4^+ T spleen cells (9, 10). The results were expressed as the mean number of cells producing cytokines (±SE) per 10^5 cells, calculated using replicates of the serial cell dilutions.

The subject of the next series is IFN-γ and IL-4 mRNA. The series is described as follows: Cytokine gene expression on CD4+ spleen cells by real-time RT-PCR. In kind it is in vivo, mice. Conditions: prophylactic and therapeutic treatment. As for the experimental part: as §2
Total RNA (5 μg, extracted from CD4^+ T spleen cells using the RNeasy Mini Kit (QIAGEN S.p.A., Milan, Italy)) was retrotranscribed with Sensiscript reverse transcriptase (QIAGEN) according to the manufacturer's indications. The primers for PCR were obtained from Applied Biosystems (Foster City, Calif.). […] The data normalised with RNA 18S were expressed as relative mRNA of the cytokines examined (ΔΔCt) and compared with those of naive mice (10).
In general terms: Quantitative PCR measures a nucleic acid by following its amplification.

The nature of series [6]: PTX3 levels in bronchoalveolar lavage fluids after i.n. administration. In kind it is in vivo, mice. Particulars: 0.5 mg/kg i.n. As for the experimental part:
To assess whether PTX3 may have a beneficial effect in otherwise susceptible mice, we used BM-transplanted mice whose substantial susceptibility to IA is well documented (15). The mice were subjected to treatments with different doses of PTX3 administered intranasally or intraperitoneally, before, concomitantly with or after infection. The doses were selected on the basis of preliminary experiments showing that PTX3 levels (at the dose of 0.5 mg/kg/i.n.) were high in bronchoalveolar lavage fluids for at least 24 h (from 70 to 25 ng/ml from 2 to 24 h) and that they were higher than those observed in mice with IA one day after infection (from 2 to 15 ng/ml) (20 and unpublished data). The survival parameters and fungal load in the lung and brain were then recorded and analysed in comparison with those obtained in mice treated with different doses of AmBisome or Fungizone. […] A dose-dependent effect was detected for this administration period, in that the protective efficacy of PTX3 was lost at the dose of 0.04 mg/kg. […] No difference was observed between the two administration routes. […] These characteristics were not observed in the mice treated with PTX3, the lungs of which were characterised by healing infiltrates of poly- and mononuclear inflammatory cells with no evidence of fungal growth or destruction of the bronchial wall (FIG. 3B).

For series [7], the system named is A. fumigatus. The series is described as follows: In-vitro direct killing activity on the fungus. In kind it is cell-based. Particulars: data not shown.
Series [8] relates to Aspergillus conidia. The series is described as follows: Conidia-killing activity of effector phagocytes from treated mice. It counts as in vivo. Conditions: treated vs untreated mice; data not shown.
Setting [9] is: 1 mg/kg i.p., 3 days after infection, vs untreated control.

“Also recorded” adds a separate entry of the source. Like-named read-outs stand apart in the source and are kept apart here. Where only a bound is given, the exact number is not on record here.

As to “PTX3: long pentraxin PTX3 purified by immunoaffinity chromatography from culture supernatants of CHO cells transfected with PTX3”, in the series on A. fumigatus [1] (PTX3 administered after infection), the survival entry is listed as “increased the survival of the mice only at the higher dose”. The survival in the series with A. fumigatus [1] (PTX3 administered prophylactically, any of the doses assayed) is on record as at least 60 days. The “fungal load in the lung” value in the series on A. fumigatus [1] (after infection, both doses) is “significantly reduced”. Besides, in the series with A. fumigatus [1] (after infection, higher dose), the “fungal load in the brain” value is reported as “significantly reduced”. Besides, the protective efficacy entry in the series with A. fumigatus [1] (concomitantly with infection, 0.04 mg/kg) is “lost”. The “fungal load in the lungs and brain” value in the series with A. fumigatus [1] (prophylactic, particularly at highest dose (1 mg/kg), vs untreated) is on record as “significantly reduced”. Further, in the series with Aspergillus conidia [2], the “fungal growth in the kidneys of reinfected mice” value is “reduced”. In addition, the lung pathology result in the series on A. fumigatus [3] is “no evidence of parenchymal destruction or fungal growth; also recorded: improved”. Besides, in series [4] (1 mg/kg i.p., FACS), the “numbers of CD4+ cells, CD8+ cells and Gr-1+ neutrophils in the lungs” value is “significantly increased”; the “recovery of neutrophils and, partly, of CD4+ T cells in the spleens” value is given as “observed”. In addition, in series [4] (blood leukocytes, data not shown), the “absolute number of circulating neutrophils” value is “increased significantly”. The “number of F4-80+ cells of the lungs or spleens” value in series [4] (with or without PTX3 treatment) is “No difference”. Moreover, in [5] (setting [9]), the “increase of IL-12 production” value is given as “approximately 4 fold” and the “production of IL-10” value is “halved”. In series [5] (ELISPOT), the “frequency of CD4+ Th1 cells in the spleen” value is given as “increased” and the “frequency of cells producing IL-4 in the spleen” value is listed as “reduced”. The “production of IL-4 by spleen cells” value in [5] (antigen-stimulated spleen cell supernatants, suboptimal doses) was “greatly reduced”. Besides, the “production of TNF-α” value in series [5] (lungs of infected mice treated with PTX3) is on record as “not increased”. In addition, in the series on IFN-γ and IL-4 mRNA, the “expression of IFN-γ mRNA” value is given as “significantly increased” and the “expression of IL-4 mRNA” value is reported as “reduced”. Further, the “time PTX3 levels were high in bronchoalveolar lavage fluids” value in series [6] is listed as “at least 24 h”. The “direct killing activity on the fungus” value with A. fumigatus [7] was “ruled out any direct killing activity”. Further, the “conidia-killing activity of the effector phagocytes” value in the series on Aspergillus conidia [8] is recorded as “higher”.
